One compound from US11008554B2 (priority 2014, dated 2021) can be followed below.

The assay concerns the target recombinant human AChE (Homo sapiens, UniProt P22303, D92N/S572N). The assay is classed as biochemical.

recombinant human AChE, sequence (P22303 whole entry D92N/S572N, looked up): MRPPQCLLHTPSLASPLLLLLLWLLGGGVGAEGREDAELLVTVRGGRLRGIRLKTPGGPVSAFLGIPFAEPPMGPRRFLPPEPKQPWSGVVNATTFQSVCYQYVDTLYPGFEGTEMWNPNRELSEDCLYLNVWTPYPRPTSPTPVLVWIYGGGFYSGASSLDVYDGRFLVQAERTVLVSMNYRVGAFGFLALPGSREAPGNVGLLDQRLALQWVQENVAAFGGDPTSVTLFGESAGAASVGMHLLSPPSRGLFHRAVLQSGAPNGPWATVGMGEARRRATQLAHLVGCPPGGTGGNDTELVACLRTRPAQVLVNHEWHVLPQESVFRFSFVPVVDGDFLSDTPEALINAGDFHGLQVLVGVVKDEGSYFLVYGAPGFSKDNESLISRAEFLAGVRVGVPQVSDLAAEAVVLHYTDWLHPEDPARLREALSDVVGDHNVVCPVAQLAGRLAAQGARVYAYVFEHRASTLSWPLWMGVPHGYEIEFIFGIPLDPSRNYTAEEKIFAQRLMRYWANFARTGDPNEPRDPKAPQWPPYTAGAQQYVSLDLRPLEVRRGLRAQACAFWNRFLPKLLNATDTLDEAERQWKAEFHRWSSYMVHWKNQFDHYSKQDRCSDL

On to `CCOP(=O)(OCC)Oc1ccc([N+](=O)[O-])cc1` [paraoxon], for which the “inhibition of AChE enzyme (localized red spot)” value is recorded as “inhibited”.
